From patent US12534450B2, “Methods and compositions for targeting PD-L1” (Aligos Therapeutics, Inc., priority 2021, dated 2026)

Experiments:
PD-1/PD-L1 interaction = assay: PD-1/PD-L1 NFAT Reporter Assay (co-culture of Jurkat T cells overexpressing PD-1 and PD-L1 expressing CHO cells); type: cell-based; conditions: Homo sapiens, Jurkat, 6 h, co-culture 6 hrs at 37° C., NFAT-mediated luciferase activity
Method: Blocking the PD-1/PD-L1 interaction will release the inhibitory signal and results in TCR signaling and NFAT-mediated luciferase activity.
CHO cells expressing surface-bound anti-CD3 antibodies and PD-L1 were first seeded overnight and treated with the compounds. Jurkat cells overexpressing PD-1 and a luciferase construct under NFAT promoter were then immediately seeded on the monolayer of CHO cells. The co-culture was then incubated for 6 hrs at 37° C. Luciferase activity was assessed by adding the ONE-Glo reagent and measuring luminescence with a plate reader. EC50 values were determined from the fit of the dose-response curves.

PD-1/PD-L1 PPI = PD-1/PD-L1 PPI (Homo sapiens, UniProt Q9NZQ7); assay: PDL1/PD1 Binding Assay; conditions: PDL1-6×His 0.3 nM, PD1-Fc-Avi-Biotin 2.5 nM, Acceptor/Donor beads, Envision reader
Method: Compounds to be tested were serially diluted in DMSO, and further diluted in assay buffer (25 mM Hepes pH 7.4, 150 mM NaCl, 0.005% Tween 20, BSA 0.01%). Diluted compounds were added to the wells with final concentration of DMSO at 1%. PDL1-6×His protein was added to the wells, mixed well with compound. The plates were incubated for 30 min at room temperature. PD1-Fc-Avi-Biotin protein was added to the wells. Final concentration of PDL1 and PD1 protein is 0.3 nM and 2.5 nM, respectively. After a binding time of 30 min at room temperature, Anti-6×His Acceptor beads (final concentration 20 ug/ml) were added to the wells, and the incubation continued for 1 h. Streptavidin Donor beads (final concentration 20 ug/mL) were added at reduced light. The plates were sealed with foil and incubated in the dark for additional 1 h or overnight before reading on an Envision reader. The IC50 values were determined by fitting the curves using a four-parameter equation in Graphpad Prism 8.

Sequence of PD-1/PD-L1 PPI (Q9NZQ7 19-238 limits assumed): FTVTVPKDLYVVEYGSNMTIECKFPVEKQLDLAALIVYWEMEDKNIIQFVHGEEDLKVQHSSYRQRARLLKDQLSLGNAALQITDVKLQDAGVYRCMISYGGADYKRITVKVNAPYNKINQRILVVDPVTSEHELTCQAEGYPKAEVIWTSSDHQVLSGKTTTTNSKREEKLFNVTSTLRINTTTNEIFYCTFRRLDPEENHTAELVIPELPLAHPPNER

Row | SMILES | EC50 (PD-1/PD-L1 interaction) [µM] | IC50 (PD-1/PD-L1 PPI) [µM]
1 | COc1nc(-c2cccc(-c3cccc(NC(=O)c4cn(C)c(=O)n(C)c4=O)c3Cl)c2Cl)cc2c1[C@H](N1CC(OC)C1)CC2 (single isomer, unassigned) [Compound A-25] | ≤ 0.01 | ≤ 0.01
2 | COc1nc(-c2cccc(-c3cccc(NC(=O)c4cn(C)c(=O)n(C)c4=O)c3Cl)c2Cl)cc2c1[C@H](N1CC(O)C1)CC2 (single isomer, unassigned) [Compound A-27] | ≤ 0.01 | ≤ 0.01
3 | COc1nc(-c2cccc(-c3cccc(NC(=O)c4cn(C)c(=O)n(C)c4=O)c3C)c2Cl)cc2c1[C@H](N1CC(O)C1)CC2 (single isomer, unassigned) [Compound A-28] | ≤ 0.01 | ≤ 0.01
4 | COc1nc(-c2cccc(-c3cccc(NC(=O)c4cn(C)c(=O)n(C)c4=O)c3Cl)c2Cl)cc2c1[C@@H](N[C@@H]1CCOC[C@@H]1O)CC2 (single isomer, unassigned) [Compound A-29] | ≤ 0.01 | ≤ 0.01
5 | COc1nc(-c2cccc(-c3cccc(NC(=O)c4cn(C)c(=O)n(C)c4=O)c3Cl)c2Cl)cc2c1[C@H](N[C@@H]1CCOC[C@@H]1O)CC2 (single isomer, unassigned) [Compound A-30] | 0.1 to 1 | ≤ 0.01
6 | COc1nc(-c2cccc(-c3cccc(NC(=O)c4cn(C)c(=O)n(C)c4=O)c3Cl)c2C)cc2c1[C@H](N[C@@H]1CCOC[C@@H]1O)CC2 (single isomer, unassigned) [Compound A-31] | 1 to 10 | ≤ 0.01
7 | COc1nc(-c2cccc(-c3cccc(NC(=O)c4cn(C)c(=O)n(C)c4=O)c3C)c2Cl)cc2c1[C@H](N[C@@H]1CCOC[C@@H]1O)CC2 (single isomer, unassigned) [Compound A-33] | ≤ 0.01 | ≤ 0.01
8 | COc1nc(-c2cccc(-c3cccc(NC(=O)c4cn(C)c(=O)n(C)c4=O)c3Cl)c2C)cc2c1[C@@H](N[C@@H]1CCOC[C@@H]1O)CC2 (single isomer, unassigned) [Compound A-39] | ≤ 0.01 | ≤ 0.01
9 | COc1nc(-c2cccc(-c3cccc(NC(=O)c4cn(C)c(=O)n(C)c4=O)c3C)c2Cl)cc2c1[C@H](N1CC3(CN(C(C)=O)C3)C1)CC2 (single isomer, unassigned) [Compound A-72] | 0.01 to 0.1 | ≤ 0.01
10 | COc1nc(-c2cccc(-c3cc(F)cc(NC(=O)c4nn(C)c(=O)n(C)c4=O)c3C)c2C)cc2c1[C@@H](N[C@@H]1CCOC[C@@H]1O)CC2 (single isomer, unassigned) [Compound A-74] | 0.01 to 0.1 | ≤ 0.01
11 | COc1nc(-c2cccc(-c3cccc(NC(=O)c4nn(C)c(=O)n(C)c4=O)c3C)c2C)cc2c1[C@@H](N[C@@H]1CCOC[C@@H]1O)CC2 (single isomer, unassigned) [Compound A-75] | 0.01 to 0.1 | ≤ 0.01
12 | CCOC(=O)C1CN([C@H]2CCc3cc(-c4cccc(-c5cccc(NC(=O)c6cn(C)c(=O)n(C)c6=O)c5Cl)c4Cl)nc(OC)c32)C1 (single isomer, unassigned) [Compound A-85] | 0.01 to 0.1 | ≤ 0.01
13 | CCOC(=O)C1CN([C@@H]2CCc3cc(-c4cccc(-c5cccc(NC(=O)c6cn(C)c(=O)n(C)c6=O)c5Cl)c4Cl)nc(OC)c32)C1 (single isomer, unassigned) [Compound A-86] | > 5 | 0.1 to 1
14 | CCOC(=O)C1CN([C@H]2CCc3cc(-c4cccc(-c5cccc(NC(=O)c6ccnn(C)c6=O)c5Cl)c4Cl)nc(OC)c32)C1 (single isomer, unassigned) [Compound A-87] | 0.01 to 0.1 | ≤ 0.01
15 | CCOC(=O)C1CN([C@H]2CCc3cc(-c4cccc(-c5cccc(NC(=O)c6ccnn(C)c6=O)c5C)c4Cl)nc(OC)c32)C1 (single isomer, unassigned) [Compound A-88] | 0.01 to 0.1 | ≤ 0.01
16 | COc1nc(-c2cccc(-c3cccc(NC(=O)c4nn(C)c(=O)n(C)c4=O)c3C)c2C)cc2c1[C@@H](N[C@@H]1CCOC[C@H]1O)CC2 (single isomer, unassigned) [Compound A-91] | 1 to 10 | ≤ 0.01
17 | COc1nc(-c2cccc(-c3cccc(NC(=O)c4nn(C)c(=O)n(C)c4=O)c3C)c2C)cc2c1[C@H](N[C@@H]1CCOC[C@H]1O)CC2 (single isomer, unassigned) [Compound A-92] | 0.01 to 0.1 | ≤ 0.01
18 | COc1nc(-c2cccc(-c3cccc(NC(=O)c4nn(C)c(=O)n(C)c4=O)c3Cl)c2Cl)cc2c1[C@@H](N[C@@H]1CCOC[C@H]1O)CC2 (single isomer, unassigned) [Compound A-93] | 0.1 to 1 | ≤ 0.01
19 | COc1nc(-c2cccc(-c3cccc(NC(=O)c4nn(C)c(=O)n(C)c4=O)c3Cl)c2Cl)cc2c1[C@H](N[C@@H]1CCOC[C@H]1O)CC2 (single isomer, unassigned) [Compound A-94] | ≤ 0.01 | ≤ 0.01
20 | COc1nc(-c2cccc(-c3cccc(NC(=O)c4nn(C)c(=O)n(C)c4=O)c3C)c2Cl)cc2c1[C@@H](N[C@@H]1CCOC[C@H]1O)CC2 (single isomer, unassigned) [Compound A-95] | 0.1 to 1 | ≤ 0.01
21 | COc1nc(-c2cccc(-c3cccc(NC(=O)c4nn(C)c(=O)n(C)c4=O)c3Cl)c2Cl)cc2c1[C@@H](N[C@@H]1COC[C@H]1O)CC2 (single isomer, unassigned) [Compound A-99] | 0.1 to 1 | ≤ 0.01
22 | COc1nc(-c2cccc(-c3cccc(NC(=O)c4nn(C)c(=O)n(C)c4=O)c3Cl)c2Cl)cc2c1[C@H](N[C@@H]1COC[C@H]1O)CC2 (single isomer, unassigned) [Compound A-100] | ≤ 0.01 | ≤ 0.01
23 | COc1nc(-c2cccc(-c3cccc(NC(=O)c4nn(C)c(=O)n(C)c4=O)c3C)c2Cl)cc2c1[C@@H](N[C@@H]1COC[C@H]1O)CC2 (single isomer, unassigned) [Compound A-101] | > 5 | ≤ 0.01

Further lines, results first:

Row | EC50 (PD-1/PD-L1 interaction) [µM] | IC50 (PD-1/PD-L1 PPI) [µM] | SMILES
24 | ≤ 0.01 | ≤ 0.01 | COc1nc(-c2cccc(-c3cccc(NC(=O)c4cn(C)c(=O)n(C)c4=O)c3C)c2Cl)cc2c1[C@@H](N[C@@H]1CCOC[C@@H]1O)CC2 (single isomer, unassigned) [Compound A-40]
25 | ≤ 0.01 | ≤ 0.01 | COc1nc(-c2cccc(-c3cccc(NC(=O)c4cn(C)c(=O)n(C)c4=O)c3C)c2C)cc2c1[C@@H](N[C@@H]1CCOC[C@@H]1O)CC2 (single isomer, unassigned) [Compound A-41]
26 | 0.01 to 0.1 | ≤ 0.01 | COc1nc(-c2cccc(-c3cccc(NC(=O)c4cn(C)c(=O)n(C)c4=O)c3C)c2F)cc2c1[C@@H](N[C@@H]1CCOC[C@@H]1O)CC2 (single isomer, unassigned) [Compound A-42]
27 | 0.01 to 0.1 | ≤ 0.01 | COc1nc(-c2cccc(-c3cccc(NC(=O)c4cn(C)c(=O)n(C)c4=O)c3C)c2C)cc2c1[C@@H](NC[C@@H]1CCC(=O)N1)CO2 (single isomer, unassigned) [Compound A-49]
28 | > 5 | 0.01 to 0.1 | COc1nc(-c2cccc(-c3cccc(NC(=O)c4cn(C)c(=O)n(C)c4=O)c3C)c2C)cc2c1[C@@H](N1CC(O)C1)CC2 (single isomer, unassigned) [Compound A-79]
29 | 0.01 to 0.1 | ≤ 0.01 | COc1nc(-c2cccc(-c3cccc(NC(=O)c4cn(C)c(=O)n(C)c4=O)c3C)c2C)cc2c1[C@H](N1CC(O)C1)CC2 (single isomer, unassigned) [Compound A-80]
30 | 0.01 to 0.1 | ≤ 0.01 | COc1nc(-c2cccc(-c3cccc(NC(=O)c4cn(C)c(=O)n(C)c4=O)c3C)c2C)cc2c1[C@@H](N1CC(OC)C1)CC2 (single isomer, unassigned) [Compound A-83]
31 | > 5 | 0.01 to 0.1 | COc1nc(-c2cccc(-c3cccc(NC(=O)c4cn(C)c(=O)n(C)c4=O)c3C)c2C)cc2c1[C@H](N1CC(OC)C1)CC2 (single isomer, unassigned) [Compound A-84]
32 | 1 to 10 | 0.01 to 0.1 | COc1nc(-c2cccc(-c3cccc(NC(=O)c4cn(C)c(=O)n(C)c4=O)c3C)c2C)cc2c1[C@@H](N[C@@H]1CCOC[C@H]1O)CC2 (single isomer, unassigned) [Compound A-89]
33 | 0.01 to 0.1 | ≤ 0.01 | COc1nc(-c2cccc(-c3cccc(NC(=O)c4cn(C)c(=O)n(C)c4=O)c3C)c2C)cc2c1[C@H](N[C@@H]1CCOC[C@H]1O)CC2 (single isomer, unassigned) [Compound A-90]
34 | 1 to 10 | 0.01 to 0.1 | COc1nc(-c2cccc(-c3cccc(NC(=O)c4cn(C)c(=O)n(C)c4=O)c3C)c2C)cc2c1[C@@H](N[C@@H]1COC[C@H]1O)CC2 (single isomer, unassigned) [Compound A-97]
35 | 0.1 to 1 | ≤ 0.01 | COc1nc(-c2cccc(-c3cccc(NC(=O)c4cn(C)c(=O)n(C)c4=O)c3C)c2C)cc2c1[C@H](N[C@@H]1COC[C@H]1O)CC2 (single isomer, unassigned) [Compound A-98]
